Test results published in US20230116703A1, “NOVEL ERGOLINES AND METHODS OF TREATING MOOD DISORDERS” (priority 2021, published 2023).
pEC50: −log10 of the molar value.

Key:
5-HT2A receptor [1] = molecular target: T1, 5-HT2A receptor (Homo sapiens, UniProt P28223); test: biochemical; assay type: binding; conditions: for Ki: 1 nM [^3H]ketanserin, HEK293 stable cell line, read-out: 5-HT2A Receptor Ki (nM) ([^3H]ketanserin)
T1 construct: host or cells: HEK293
Experimental: Affinity of the test compounds for the 5-HT2A receptor was determined in radioligand binding experiments with [^3H]ketanserin by WuXi AppTec (Hong Kong) Limited, using methods adapted from the literature and under conditions described in Table 1.

5-HT2A receptor [2] = molecular target: T1, 5-HT2A receptor; test: cell-based; assay type: cell-based; conditions: Ca^2+ flux, agonist; for pEC50: read-out: 5-HT2A EC50
Experimental: (§1) Functional Assays at 5-HT2A, 5-HT2B, and 5-HT1A. Agonist activity at 5-HT2A, 5-HT2B, and 5-HT1A receptors was determined using a FLIPR Ca^2+ flux assay at WuXi AppTec (Hong Kong) Limited according to their standard protocols. Briefly, stably transfected cells expressing the receptor of interest (HEK293 for 5-HT2A and 5-HT2B; CHO cells for 5-HT1A) were grown and plated in a 384 well plate and incubated at 37° C. and 5% CO2 overnight. A solution of 250 mM probenecid in 1 mL FLIPR assay buffer was prepared fresh. This was combined with a fluorescent dye (Fluo-4 Direct™) to make a final assay concentration of 2.5 mM. […] The fluorescent dye was then added to the assay plate along with assay buffer to a final volume of 40 μL. The cell plate was incubated for 50 min at 37° C. and 5% CO2 and placed into the FLIPR Tetra along with the compound plate. 10 μL of references and compounds were then transferred from the compound plate into the cell plate and the fluorescent signal was read.

5-HT1A receptor = molecular target: T2, 5-HT1A receptor (Homo sapiens, UniProt P08908); test: cell-based; conditions: Ca^2+ flux, agonist; for pEC50: read-out: 5-HT1A EC50
T2 construct: host or cells: CHO cells
T2 sequence (P08908 1-422): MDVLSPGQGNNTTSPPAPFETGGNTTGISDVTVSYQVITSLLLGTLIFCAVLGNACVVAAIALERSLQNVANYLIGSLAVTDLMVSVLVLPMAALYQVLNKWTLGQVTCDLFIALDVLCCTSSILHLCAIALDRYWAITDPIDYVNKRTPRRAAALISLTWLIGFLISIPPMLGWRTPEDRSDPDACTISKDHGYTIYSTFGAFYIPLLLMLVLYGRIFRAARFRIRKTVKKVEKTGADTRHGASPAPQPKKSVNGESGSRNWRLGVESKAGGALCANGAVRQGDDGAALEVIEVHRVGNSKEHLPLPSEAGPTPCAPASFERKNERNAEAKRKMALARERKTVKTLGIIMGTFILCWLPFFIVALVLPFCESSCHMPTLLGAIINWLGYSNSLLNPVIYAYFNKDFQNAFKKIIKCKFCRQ
Experimental: as §1

5-HT2B receptor = molecular target: T3, 5-HT2B receptor (Homo sapiens, UniProt P41595); test: cell-based; conditions: Ca^2+ flux, agonist; for pEC50: read-out: 5-HT2B EC50
T3 construct: host or cells: HEK293
Experimental: as §1

5-HT1B receptor = 5-HT1B receptor (Homo sapiens, UniProt P28222); test: cAMP accumulation agonist assay at 5-HT1B; assay type: cell-based; conditions: cAMP, agonist; for pEC50: read-out: 5-HT1B EC50
Experimental: Disclosed compounds were tested for agonist activity at several serotonin receptor subtypes (5-HT2A, […], 5-HT2C, and 5-HT1A) using Ca^2+ flux functional assays and the 5-HT1B receptor using a cAMP accumulation assay, with the results summarized in Table 4. […] Potent agonist activity was also observed at the other serotonin receptors tested, although the selectivity profile among the receptors varied across compounds. […]. However, at the same time, the N-propyl compounds were more efficacious agonists at 5-HT2B than the corresponding N-methyl compounds. The selectivity of disclosed compounds for 5-HT2A over 5-HT2C and 5-HT1A was less predictable and varied widely across compounds, ranging from ˜1:6 to ˜20:1 (2C/2A) in the case of 5-HT2C and from ˜1:4 to >100:1 (1A/2A) in the case of 5-HT1A. […] An azetidinyl amide substituent tended to increase potency at 5-HT1A relative to 5-HT2A.
Functional Assay at 5-HT1B. Agonist activity at 5-HT1B was determined using a cAMP accumulation protocol at WuXi AppTec (Hong Kong) Limited according to their standard protocols. Briefly, stably transfected cells were plated in an OptiPlate-384 well plate, incubated at RT for 60 mins, and cAMP standard solution (800 nM, 10 μL) was added to the blank well. Then, 10 μL detection reagent was added to each well, the plate incubated for 60 mins at RT, and the plate read using EnVision.

[3] = Metabolic stability in human liver microsomes (HLM); assay type: in vitro ADME; conditions: for t1/2: 1 μM, 0.50 mg protein per mL; for microsomal CLint at 1 μM / half-life at 1 μM: both sexes, human, pooled human liver microsomes, pH 7.4, 0.50 mg protein per mL
Excerpt: HLM Stability. Pooled HLM from adult male and female donors (Corning 452117) were used.

[4] = Metabolic stability in mouse liver microsomes (MLM); assay type: in vitro ADME; conditions: 0.50 mg protein per mL; for t1/2: MLM (CD-1), 1 μM; for microsomal CLint at 1 μM: mouse, pooled mouse liver microsomes, pH 7.4, MLM (CD-1)
Excerpt: MLM Stability Pooled MLM from CD-1 mice (BIOIVT M00501) were used.

[5] = Metabolic stability in rat liver microsomes (RLM); conditions: for t1/2: RLM, 0.50 mg protein per mL; for microsomal CLint at 1 μM: both, rat, pooled rat liver microsomes, pH 7.4

T3 sequence (P41595 whole entry): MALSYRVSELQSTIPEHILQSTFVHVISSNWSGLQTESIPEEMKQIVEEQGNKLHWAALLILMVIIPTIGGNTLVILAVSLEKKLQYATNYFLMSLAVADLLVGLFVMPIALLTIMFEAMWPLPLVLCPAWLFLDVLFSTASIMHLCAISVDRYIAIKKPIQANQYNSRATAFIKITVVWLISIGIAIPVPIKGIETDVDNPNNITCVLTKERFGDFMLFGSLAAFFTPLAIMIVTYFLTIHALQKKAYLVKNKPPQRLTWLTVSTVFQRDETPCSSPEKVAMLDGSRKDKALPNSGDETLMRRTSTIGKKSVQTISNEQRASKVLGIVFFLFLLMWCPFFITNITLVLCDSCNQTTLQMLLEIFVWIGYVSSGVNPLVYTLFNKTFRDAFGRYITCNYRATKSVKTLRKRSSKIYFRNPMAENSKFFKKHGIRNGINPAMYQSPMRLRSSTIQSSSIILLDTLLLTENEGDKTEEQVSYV
T1 sequence (P28223 whole entry): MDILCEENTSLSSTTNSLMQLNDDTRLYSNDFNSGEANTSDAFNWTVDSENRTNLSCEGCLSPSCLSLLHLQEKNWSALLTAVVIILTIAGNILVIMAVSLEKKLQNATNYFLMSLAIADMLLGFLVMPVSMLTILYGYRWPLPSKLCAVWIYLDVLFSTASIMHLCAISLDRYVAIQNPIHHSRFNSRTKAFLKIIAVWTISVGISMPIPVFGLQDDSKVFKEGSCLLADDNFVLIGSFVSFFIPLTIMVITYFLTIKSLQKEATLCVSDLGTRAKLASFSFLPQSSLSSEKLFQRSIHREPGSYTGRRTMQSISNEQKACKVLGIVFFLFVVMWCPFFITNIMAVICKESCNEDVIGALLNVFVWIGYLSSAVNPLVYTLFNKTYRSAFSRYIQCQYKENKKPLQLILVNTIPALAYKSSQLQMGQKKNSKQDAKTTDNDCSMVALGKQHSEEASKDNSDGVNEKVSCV
5-HT1B receptor, sequence (P28222 whole entry): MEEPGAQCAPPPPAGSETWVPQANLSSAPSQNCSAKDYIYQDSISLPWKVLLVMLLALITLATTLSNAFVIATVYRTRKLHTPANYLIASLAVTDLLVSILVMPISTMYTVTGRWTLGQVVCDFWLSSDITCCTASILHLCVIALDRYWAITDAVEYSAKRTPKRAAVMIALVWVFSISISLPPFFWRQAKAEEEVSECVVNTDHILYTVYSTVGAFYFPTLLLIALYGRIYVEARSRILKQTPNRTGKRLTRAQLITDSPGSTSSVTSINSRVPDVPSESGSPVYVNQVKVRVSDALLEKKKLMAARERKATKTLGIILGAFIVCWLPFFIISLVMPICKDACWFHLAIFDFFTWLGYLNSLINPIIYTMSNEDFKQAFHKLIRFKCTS

Row | Compound | Ki (5-HT2A receptor [1]) [nM] | pEC50 (5-HT2A receptor [2]) | 5-HT1A % Act @ Max Dose (5-HT1A receptor) [%] | pEC50 (5-HT1A receptor) | pEC50 (5-HT2B receptor) | pEC50 (5-HT1B receptor) | t1/2 [3] [min] | microsomal CLint at 1 μM [3] [µL/min/mg] | t1/2 [4] [min] | microsomal CLint at 1 μM [4] [µL/min/mg] | t1/2 [5] [min] | microsomal CLint at 1 μM [5] [µL/min/mg] | 5-HT2B % Act @ Max Dose (5-HT2B receptor) [%] | 5-HT2A % Act @ Max Dose (5-HT2A receptor [2]) [%] | 5-HT1B % Act @ Max Dose (5-HT1B receptor) [%] | half-life at 1 μM [3] [min] | 5-HT2A receptor binding affinity / potency (in words) (5-HT2A receptor [1]; radioligand binding)
1 | CCN(CC)C(=O)[C@@H]1C=C2c3cccc4[nH]cc(c34)C[C@H]2N(Cc2ccc(OC)cc2)C1 [Compound 19, (6aR,9R)—N,N-diethyl-7-(4-methoxybenzyl)-4,6,6a,7,8,9-hexahydroindolo[4,3-fg]quinoline-9-carboxamide] | 5.58 | 5.53 | −0.65 | < 5.00 | < 5.00 | 5.23 | 16.8 | 82.7 | 7.2 | 193 | 10.0 | 139 | – | – | – | – | –
2 | CCN(CC)C(=O)[C@@H]1C=C2c3cccc4[nH]cc(c34)C[C@H]2N(Cc2ccccc2O)C1 [Compound 16, (6aR,9R)—N,N-diethyl-7-(2-hydroxybenzyl)-4,6,6a,7,8,9-hexahydroindolo[4,3-fg]quinoline-9-carboxamide] | 2.18 | 6.26 | – | < 5.00 | < 5.00 | 6.17 | 4.9 | 286 | 1.3 | 1050 | 2.2 | 616 | – | – | – | – | –
3 | CCN(CC)C(=O)[C@@H]1C=C2c3cccc4[nH]cc(c34)C[C@H]2N(CCc2cccc(OC)c2)C1 [Compound 20, (6aR,9R)—N,N-diethyl-7-(3-methoxyphenethyl)-4,6,6a,7,8,9-hexahydroindolo[4,3-fg]quinoline-9-carboxamide] | 1.03 | 6.58 | – | < 5.00 | < 5.00 | < 5.00 | 2.1 | 649 | 0.9 | 1550 | 1.2 | 1150 | 3.60 | – | – | – | –
4 | CCC[C@@H](C)NC(=O)[C@@H]1C=C2c3cccc4[nH]c(Br)c(c34)C[C@H]2N(C)C1 [Compound 45, (6aR,9R)-5-bromo-N—((R)-pentan-2-yl)-7-methyl-4,6,6a,7,8,9-hexahydroindolo[4,3-fg]quinoline-9-carboxamide] | 0.38 | 6.88 | 12.53 | < 5.00 | < 5.00 | 6.61 | – | 176 | – | – | – | – | −0.31 | 22.28 | 87.10 | 7.9 | –
5 | CCN(CC)C(=O)[C@@H]1C=C2c3cccc4[nH]c(Br)c(c34)C[C@H]2N(CCCF)C1 [Compound 41, (6aR,9R)-5-bromo-N,N-diethyl-7-(3-fluoropropyl)-4,6,6a,7,8,9-hexahydroindolo[4,3-fg]quinoline-9-carboxamide] | 0.58 | 6.94 | 39.75 | < 5.00 | 6.29 | < 5.00 | – | 130 | – | – | – | – | 84.51 | 75.44 | 61.49 | 10.7 | –
6 | CCCN1C[C@H](C(=O)N(CC)CC)C=C2c3cccc4c3C(CN4)C[C@H]21 (mixture of isomers) [Compound 36, (6aR,9R)—N,N-diethyl-7-propyl-4,5,5a,6,6a,7,8,9-octahydroindolo[4,3-fg]quinoline-9-carboxamide] | 10.7 | 7.30 | 88.68 | 8.32 | 6.20 | 7.64 | – | 42.2 | – | – | – | – | 110.53 | 77.54 | 97.51 | 32.8 | reduced in potency
7 | CCCN1C[C@H](C(=O)N[C@H](C)CC)C=C2c3cccc4[nH]c(Br)c(c34)C[C@H]21 [Compound 46, (6aR,9R)-5-bromo-N—((R)-sec-butyl)-7-propyl-4,6,6a,7,8,9-hexahydroindolo[4,3-fg]quinoline-9-carboxamide] | 1.03 | 6.96 | 69.48 | 6.15 | 6.10 | 5.93 | – | 427 | – | – | – | – | 79.00 | 69.48 | 78.76 | 3.2 | –
8 | C[C@H]1C[C@H](C)N1C(=O)[C@@H]1C=C2c3cccc4[nH]cc(c34)C[C@H]2N(CCCF)C1 [Compound 26, ((2S,4S)-2,4-dimethylazetidin-1-yl)((6aR,9R)-7-(3-fluoropropyl)-4,6,6a,7,8,9-hexahydroindolo[4,3-fg]quinolin-9-yl)methanone] | 11.3 | 7.81 | 97.94 | 8.44 | 6.37 | 6.13 | – | 67.7 | – | – | – | – | 100.66 | 83.23 | 77.16 | 20.5 | –
9 | CCC(CC)NC(=O)[C@@H]1C=C2c3cccc4[nH]c(Br)c(c34)C[C@H]2N(C)C1 [Compound 44, (6aR,9R)-5-bromo-N-(pentan-3-yl)-7-methyl-4,6,6a,7,8,9-hexahydroindolo[4,3-fg]quinoline-9-carboxamide] | 0.76 | 6.89 | 16.56 | < 5.00 | < 5.00 | 5.90 | – | 153 | – | – | – | – | 15.68 | 29.90 | 68.53 | 9 | –
10 | CN1C[C@H](C(=O)N2CCCC2)C=C2c3cccc4[nH]cc(c34)C[C@H]21 [Int22, ((6aR,9R)-7-methyl-4,6,6a,7,8,9-hexahydroindolo[4,3-fg]quinolin-9-yl)(pyrrolidin-1-yl)methanone] | 14.9 | 7.68 | 103.7 | 8.05 | 7.26 | 8.13 | – | < 9.6 | – | – | – | – | 21.35 | 89.65 | 94.25 | > 145 | –
